Experimental findings from patent publication US8283353B2, “Fused ring compound and use thereof” (Takeda Pharmaceutical Company Limited, priority 2009, dated 2012) are described below.

One assay has as its target T1, human PPARγ (Homo sapiens, UniProt P37231).
T1 construct: expressed in transfected cells
T1 sequence (P37231 1-477 isoform P37231-2): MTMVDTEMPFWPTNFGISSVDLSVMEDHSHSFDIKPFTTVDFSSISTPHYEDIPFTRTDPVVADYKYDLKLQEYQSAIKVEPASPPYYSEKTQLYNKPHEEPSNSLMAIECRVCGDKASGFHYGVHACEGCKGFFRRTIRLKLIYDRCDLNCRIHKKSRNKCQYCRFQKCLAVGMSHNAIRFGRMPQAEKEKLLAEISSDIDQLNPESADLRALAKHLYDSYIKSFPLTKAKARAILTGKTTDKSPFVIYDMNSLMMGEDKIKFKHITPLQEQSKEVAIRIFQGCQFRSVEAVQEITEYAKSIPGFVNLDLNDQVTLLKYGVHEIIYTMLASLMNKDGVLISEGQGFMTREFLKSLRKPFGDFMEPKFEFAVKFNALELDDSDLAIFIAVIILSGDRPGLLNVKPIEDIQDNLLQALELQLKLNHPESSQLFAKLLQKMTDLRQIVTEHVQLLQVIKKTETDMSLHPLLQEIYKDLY
T1 sequence (P19793 1-462 partner): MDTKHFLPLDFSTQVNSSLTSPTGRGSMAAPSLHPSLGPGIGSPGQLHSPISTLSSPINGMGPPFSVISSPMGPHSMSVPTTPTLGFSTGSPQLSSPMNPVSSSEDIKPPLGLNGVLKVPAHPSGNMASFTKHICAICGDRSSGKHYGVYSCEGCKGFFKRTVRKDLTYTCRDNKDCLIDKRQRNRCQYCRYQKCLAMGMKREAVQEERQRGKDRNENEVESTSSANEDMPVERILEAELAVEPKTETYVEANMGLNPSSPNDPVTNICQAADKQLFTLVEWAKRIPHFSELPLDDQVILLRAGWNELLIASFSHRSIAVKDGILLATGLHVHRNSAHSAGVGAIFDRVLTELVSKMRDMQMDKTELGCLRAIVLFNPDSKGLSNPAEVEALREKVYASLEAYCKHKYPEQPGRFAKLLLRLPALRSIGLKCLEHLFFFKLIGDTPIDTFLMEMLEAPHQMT
Description: PPARγ agonistic activity: luciferase reporter assay in PPARγ:RXRα:4ERPP/CHO-K1 cells. In kind it is cell-based. Conditions: CHO-K1, test compound 10^−6 M; luciferase activity of control compound X (1 μM) = 100%, non-administration group = 0%. The method, boiled down: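 Activity is expressed relative to untreated cells (0%) and 1 μM reference compound X (100%), from luciferase luminescence. Reporter line: PPARγ:RXRα:4ERPP/CHO-K1, exposed to compound for one day at 37 °C in F12 medium containing 0.1% fatty-acid-free BSA.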
Background: A reporter such as luciferase makes a cellular process visible.

In another assay the target is T2, human AT1 receptor (Homo sapiens, UniProt P30556).
T2 construct: expressed in transfected cells; membrane fraction
T2 sequence (P30556 1-359): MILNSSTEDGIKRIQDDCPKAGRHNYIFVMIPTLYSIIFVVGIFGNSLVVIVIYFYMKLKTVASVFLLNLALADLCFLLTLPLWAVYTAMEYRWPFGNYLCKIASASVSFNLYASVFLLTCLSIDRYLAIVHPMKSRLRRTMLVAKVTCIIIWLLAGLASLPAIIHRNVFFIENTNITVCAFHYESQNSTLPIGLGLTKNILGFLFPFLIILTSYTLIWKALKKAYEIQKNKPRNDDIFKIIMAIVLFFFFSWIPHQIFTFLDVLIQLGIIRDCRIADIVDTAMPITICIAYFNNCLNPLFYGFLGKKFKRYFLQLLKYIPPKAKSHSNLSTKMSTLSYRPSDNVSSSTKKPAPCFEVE
The assay is described as follows: AT1 receptor antagonistic activity: [125I]-angiotensin II binding assay on human AT1 receptor-expressing CHO-K1 cellular membrane fraction. Conditions: 22.5 pM [125I]-angiotensin II, 1 hr room temperature. In a few lines:
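Competition binding used radiolabelled angiotensin II on stably transfected CHO-K1 membrane fractions in Tris pH 7.4/MgCl2 buffer, optionally containing 0.3 mg/mL fatty acid-free BSA, 1 hr at room temperature. Filtration onto GF/C separated bound tracer, and nonspecific binding was measured with candesartan.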

Broadly, the IC50 is the point on the concentration scale where inhibition reaches its midpoint. On human PPARγ, `CCCc1c(Cc2ccc(-c3ccccc3-c3noc(=O)[nH]3)cc2)c(=O)n([C@H]2CC[C@@]3(CC2)CC(C)=NO3)c2ncnn12` [Example 205, 4-[(5S,8S)-3-methyl-1-oxa-2-azaspiro[4.5]dec-2-en-8-yl]-6-{[2′-(5-oxo-4,5-dihydro-1,2,4-oxadiazol-3-yl)biphenyl-4-yl]methyl}-7-propyl[1,2,4]triazolo[1,5-a]pyrimidin-5(4H)-one] yielded an activation at 1 µM of 27%. Further, the IC50 at human AT1 receptor came out at 2.7 nM.
Regarding `CCCCc1c(Cc2ccc(-c3ccccc3-c3noc(=O)[nH]3)cc2)c(=O)n([C@H]2CC[C@H](OC(C)C(C)(C)O)CC2)c2ncnn12` (stereo partly drawn) [Example 206, 7-butyl-4-[trans-4-(2-hydroxy-1,2-dimethylpropoxy)cyclohexyl]-6-{[2′-(5-oxo-4,5-dihydro-1,2,4-oxadiazol-3-yl)biphenyl-4-yl]methyl}[1,2,4]triazolo[1,5-a]pyrimidin-5(4H)-one], the activation at 1 µM at human PPARγ is 23%. The same molecule showed an IC50 at human AT1 receptor of 2.2 nM.
With `CCCc1c(Cc2ccc(-c3ccccc3-c3noc(=O)[nH]3)cc2)c(=O)n([C@H]2CC[C@H](OCC#N)CC2)c2ncnn12` [Example 210, ({trans-4-[5-oxo-6-{[2′-(5-oxo-4,5-dihydro-1,2,4-oxadiazol-3-yl)biphenyl-4-yl]methyl}-7-propyl[1,2,4]triazolo[1,5-a]pyrimidin-4(5H)-yl]cyclohexyl}oxy)acetonitrile], the activation at 1 µM on human PPARγ is 33%. The IC50 on human AT1 receptor amounted to 1.9 nM.
For `CCCc1c(Cc2ccc(-c3ccccc3-c3noc(=O)[nH]3)cc2)c(=O)n([C@H]2CC[C@H](OCC(C)=O)CC2)c2ncnn12` [Example 215, 6-{[2′-(5-oxo-4,5-dihydro-1,2,4-oxadiazol-3-yl)biphenyl-4-yl]methyl}-4-[trans-4-(2-oxopropoxy)cyclohexyl]-7-propyl[1,2,4]triazolo[1,5-a]pyrimidin-5(4H)-one] the same measures were 24% and 1.9 nM.
For `CCCc1c(Cc2ccc(-c3ccccc3-c3noc(=O)[nH]3)cc2)c(=O)n([C@H]2CC[C@H](OC/C(C)=N/OC)CC2)c2ncnn12` [Example 216, 4-(trans-4-{[(2E)-2-(methoxyimino)propyl]oxy}cyclohexyl)-6-{[2′-(5-oxo-4,5-dihydro-1,2,4-oxadiazol-3-yl)biphenyl-4-yl]methyl}-7-propyl[1,2,4]triazolo[1,5-a]pyrimidin-5(4H)-one] the same measures were 23% and 1.6 nM.
Molecule `CCCc1c(Cc2ccc(-c3ccccc3-c3noc(=O)[nH]3)cc2)c(=O)n([C@H]2CC[C@H](OCC(O)(CC)CC)CC2)c2ncnn12` [Example 225, 4-[trans-4-(2-ethyl-2-hydroxybutoxy)cyclohexyl]-6-{[2′-(5-oxo-4,5-dihydro-1,2,4-oxadiazol-3-yl)biphenyl-4-yl]methyl}-7-propyl[1,2,4]triazolo[1,5-a]pyrimidin-5(4H)-one] came in with an activation at 1 µM on human PPARγ of 21%. This molecule yielded an IC50 on human AT1 receptor of 2.3 nM.
In the case of `CCCc1c(Cc2ccc(-c3ccccc3-c3noc(=O)[nH]3)cc2)c(=O)n([C@H]2CC[C@H](OCC3(C#N)CCC3)CC2)c2ncnn12` [Example 227, 1-[({trans-4-[5-oxo-6-{[2′-(5-oxo-4,5-dihydro-1,2,4-oxadiazol-3-yl)biphenyl-4-yl]methyl}-7-propyl[1,2,4]triazolo[1,5-a]pyrimidin-4(5H)-yl]cyclohexyl}oxy)methyl]cyclobutanecarbonitrile], the activation at 1 µM on human PPARγ was found to be 23%. The same molecule had an IC50 on human AT1 receptor of 2.5 nM.
On to `CCCc1c(Cc2ccc(-c3ccccc3-c3noc(=O)[nH]3)cc2)c(=O)n([C@H]2CC[C@H](OCC3(CO)CCC3)CC2)c2ncnn12` [Example 228, 4-(trans-4-{[1-(hydroxymethyl)cyclobutyl]methoxy}cyclohexyl)-6-{[2′-(5-oxo-4,5-dihydro-1,2,4-oxadiazol-3-yl)biphenyl-4-yl]methyl}-7-propyl[1,2,4]triazolo[1,5-a]pyrimidin-5(4H)-one], for which, at human PPARγ, the activation at 1 µM was 27%. Moreover, the IC50 at human AT1 receptor came to 1.5 nM.
